“And” between values parts separate entries of the source, which are not always exact repeats. Identical values can stand only once. Like-named read-outs stand apart in the source and are kept apart here.
Assays:
[1] = test system: Wistar rats; assay: Open field test, hypokinetic (sedative) or hyperkinetic action (analgesia examples); details: for Hyperkinesia or sedataion / Hyperkinesia / Hyperkinesia or sedation: unmarked cells; for Hyperkinesia or sedataion: doses as E12; for Hyperkinesia or sedation: doses as E6; for Horizontal locomotive activity: control 16.1
Protocol: (§1) To evaluate the hypokinetic (sedative) or hyperkinetic action effects of tested drugs an “open field” (OF) test was applied. In the OF test, the locomotive activity of rats is determined. Animals were placed in the center of square of the illuminated field (1 meter×1 meter) for 3 minutes and the mobility time was recorded in seconds (horizontal activity). […] To quantify the locomotive activity for each dose of test drug(s) an average horizontal activity was calculated.
as §1
To evaluate the hypokinetic (sedative) effects of drugs, “open field” (OF) test was applied. In the OF test, the locomotive activity of rats is determined. Animals were placed in the center of square of the illuminated field (1 meter×1 meter) for 3 minutes and the mobility time was recorded in seconds (horizontal activity). […] To quantify the locomotive activity for each dose of test drug(s), an average horizontal activity was calculated.
Tail-Flick and Open Field Tests were Conducted as Detailed Above.
as §1

[2] = test system: male Wistar rats; assay: Opioid hyperalgesia in tail and paw withdrawal tests (% rats)
[3] = test system: Wistar rats; assay: Open field test, hyperkinetic side effects (haloperidol catalepsy examples); assay type: in vivo, rat; details: oral
Protocol: To evaluate the side hyperkinetic effects of drugs, the test an “open field” (OF) test was applied. […] To quantify the locomotive activity for each dose of the test drug(s), an average horizontal activity was calculated.

[4] = test system: Wistar rats; assay: Rotenone-induced PD: severe oligokinesia in open field test; assay type: in vivo, rat; details: for Severe oligokinesia (% of group): phenylephrine 0.3 mg/kg oral, oligokinesia ++-+++ in OF test; for Severe oligokinesia, Day 12 / Severe oligokinesia, Day 19: control 100
Protocol: Locomotive activity of rats was tested in the “open field” test. […] Registration of horizontal and vertical locomotive activity was carried out in first day for rats with high selection locomotive activity (total walking time with not less than 12 seconds and the number of vertical uprights at least 4), 60 minutes before the first administration of rotenone. To identify the rotenone-induced oligokinesia in each experimental group the locomotive activity in the open field test was examined again 2 hours after the administration of rotenone on days 12 and 19 of the experiment.
(§2) Quantification of oligokinesia in points: 0 points—the highest horizontal activity (walking total time more than 12 seconds) and high vertical activity (number of vertical posts) more than 3; 1 point—reducing the horizontal activity (total walking time 7-11 seconds) and a decrease in vertical activity (the number of vertical columns 1-3); 2 points—a significant reduction in horizontal activity (total walking time 2-6 seconds) and the absence of vertical activity (the number of vertical columns 0-1); 3 points—the absence of horizontal activity (total walking time 0-1 seconds) and the absence of vertical activity (number of vertical columns 0). In each experimental group 120 minutes after administration of rotenone on days 12 and 19 of experiment the number of rats with severe oligokinesia (2-3 points) in % of the total number of rats in group was determined.
Locomotive activity of rats was tested in the “open field” test. […] Registration of horizontal and vertical locomotive activity was carried out in first day for rats with high selection locomotive activity (total walking time with not less than 12 seconds and the number of vertical uprights at least 4), 60 minutes before the first administration of rotenone. To identify the rotenone-induced oligokynesia in each experimental group the locomotive activity in the open field test was examined again 2 hours after the administration of rotenone on days 12 and 19 of the experiment.
as §2, with “of oligokynesia” for “of oligokinesia”

[5] = test system: Wistar rats; assay: Rotenone model: hyperkinetic side effect in open field test (days 10 and 18); assay type: in vivo, rat; details: for Hyperkmesia (% of group): phenylephrine 0.3 mg/kg oral
Protocol: Anti-parkinsonian effect of therapy in rats with rotenone-induced PD was estimated according to elimination of extrapyramidal disorders (catalepsy) and oligokinesia (rapid decreased amplitude and velocity of repeated movements) in the “open field” test. The neuro-protective effect of therapy was evaluated by the elimination of ataxia limb dystonia and mortality in rats with rotenone-induced PSP. Hyperkinetic side action (hyper-locomotion) was evaluated by increased horizontal and vertical activity in the open field at the 10th and 18th day of the experiment, calculated in % compared to the first day of the experiment.
Ataxia and limb dystonia registration was performed twice daily, 30 minutes before administration of rotenone and 180 minutes after administration of rotenone. For each experimental group on a daily basis, throughout the whole period of observation number of rats with severe ataxia and limb dystonia (++−+++) and mortality in % of the total number of rats in group was determined. The neuro-protective effect of therapy (effects on rate of ataxia, limb dystonia and lethality) in rats with PSP was determined at days 12 and 19 of the experiment as reducing the number of rats with severe ataxia limb dystonia and mortality in % compared to control. Side hyperkinetic effects were evaluated in the “open field” test. In this test the locomotive activity in rats is determined. […] Registration of horizontal and vertical locomotive activity in OF assay was performed on the 10th and 18th day of the experiment, within 40 minutes after administration of the substance and 5 minutes before administration of rotenone. Side hyperkinetic effects was evaluated by the number of rats with a significant (at least 50% compared with the first day of the experiment) increase in horizontal and vertical activity (hyperkinesia) as a % of the total number of rats in group.
Anti-parkinsonian effect of therapy in rats with rotenone-induced parkinsonism was estimated according to elimination of extrapyramidal disorders (catalepsy) and oligokinesia in the “open field” test. The neuro-protective effect of therapy was evaluated by the elimination of ataxia and mortality in rats with rotenone-induced PSP. Hyperkinetic side action (hyper-locomotion) was evaluated by increased horizontal and vertical activity in the open field at the 10th and 18th day of the experiment, calculated in % compared to the first day of the experiment.
The neuro-protective effect in the experimental groups of rats with rotenone-induced PSP was evaluated due the elimination of ataxia and mortality caused by neurotoxic action of rotenone. Ataxia is typical incoordination neurotoxic effect of rotenone manifested in uncoordinated movements and hyper-locomotion, replaced by hypokinesia and stereotypes, and in severe cases a complete violation of antigravity reflexes, falling on its side and akinesia. Assessment of the severity of ataxia in scores was performed using the following scale: (+) uncoordinated movement, hyperkinesia; (++) significant incoordination, hypokinesia, stereotypes, falling on its side; (+++) complete violation of antigravity reflexes, akinesia. Ataxia registration was performed twice daily, 30 minutes before administration of rotenone and 180 minutes after administration of rotenone. For each experimental group on a daily basis, throughout the whole period of observation number of rats with severe ataxia (++−+++) and mortality in % of the total number of rats in group was determined. The neuro-protective effect of therapy (effects on rate of ataxia and lethality) in rats with PSP was determined at days 12 and 19 of the experiment as reducing the number of rats with severe ataxia and mortality in % compared to control. Side hyperkinetic effects were evaluated in the “open field” test. In this test the locomotive activity in rats is determined. […]

Work on `CN(C)CCC=C1c2ccccc2CCc2ccccc21` [Amitriptyline, amitriptyline] yielded a Hyperkinesia or sedataion [1] of 0 % rats, a Hyperkinesia ([1]; doses as E54) of 0 % rats and a Hyperalgesia ([2]; doses as E12) of 0 % rats. It also gave a Hyperalgesia ([2]; doses as E54) of 0 % rats.
For `Cc1c(N(C)CS(=O)(=O)[O-])c(=O)n(-c2ccccc2)n1C.[Na+]` [Dipyrone, dipyrone], the Hyperkinesia or sedataion [1] was 0 % rats, the Hyperkinesia ([1]; doses as E54) was 0 % rats and the Hyperalgesia ([2]; doses as E12) was 0 % rats. It also gave a Hyperalgesia ([2]; doses as E54) of 0 % rats.
`CNC[C@H](O)c1ccc(O)c(O)c1` [Epinephrine, epinephrine] was tested, and the “Locomotive horizontal activity in open field” value ([1]; I.M., control 15.6, doses by row as E32) was 15.4 s and 15.9 s and 17.6 s, the Sedation ([1]; I.M., doses by row as E3) was 0 % of Rats and the Sedation ([1]; I.M., doses by row as E32) was 0% of group. For the same compound, the Hyperkinesia or sedation [1] was 0 % rats, the Hyperkinesia ([1]; doses as E48) was 0 % rats and the Hyperalgesia ([2]; doses as E6) was 0 % rats. The Hyperalgesia ([2]; doses as E48) was 0 % rats.
With `CN1CC[C@]23c4c5ccc(O)c4O[C@H]2[C@@H](O)C=C[C@H]3[C@H]1C5` [Morphine, morphine] the Horizontal locomotive activity ([1]; oral, doses as E35) was 15.5 s and 13.2 s and 7.8 s, the Hyperkinesia or sedation [1] was 0 % rats and the Hyperkinesia or sedataion [1] was 0 % rats. The Hyperkinesia ([1]; doses as E48) was 0 % rats and the Hyperkinesia ([1]; doses as E54) was 0 % rats.
With `CNC[C@H](O)c1cccc(O)c1` [Phenylephrine, phenylephrine] the Hyperkinesia ([3]; doses by row as E18) was 0 % of Rats, the Hyperkinesia ([3]; doses by row as E30) was 0 % of Rats and the Hyperkinesia ([3]; doses by row as E60) was 0 % of Rats. For the same compound, the Hyperkinesia ([3]; open field 40 min after dosing, doses by row as E1) was 0 % of Rats, the Horizontal locomotive activity ([1]; oral, doses as E35) was 15.9 s and 16.3 s and 17.9 s and the Sedation ([1]; oral, doses as E35) was 0% of group. For the same compound, the Hyperkinesia or sedataion [1] was 0 % rats, the Hyperkinesia ([1]; doses as E54) was 0 % rats and the “Severe oligokinesia (% of group)” value ([4]; Day 12) was 86 % of group. For the same compound, the “Severe oligokinesia (% of group)” value ([4]; Day 19) was 100 % of group, the “Severe oligokinesia, Day 12” value [4] was 86 % of group and the “Severe oligokinesia, Day 19” value [4] was 100 % of group. For the same compound, the “Severe oligokinesia, Day 12” value ([4]; doses as E38) was 90 % of group, the “Severe oligokinesia, Day 19” value ([4]; doses as E38) was 100 % of group and the “Hyperkinesia, Day 18” value [5] was 0 % of group. For the same compound, the “Hyperkmesia (% of group)” value ([5]; Day 10, locomotive activity in OF test increased more than 50% vs first day) was 0 % of group, the “Hyperkmesia (% of group)” value ([5]; Day 18, locomotive activity in OF test increased more than 50% vs first day) was 0 % of group and the “Hyperkinesia, Day 10” value ([5]; doses as E38) was 0 % of group. The “Hyperkinesia, Day 18” value ([5]; doses as E38) was 0 % of group, the “Hyperkinesia, Day 10” value ([5]; locomotive activity in OF test increased more than 50% vs first day) was 0 % of group and the Hyperalgesia ([2]; doses as E12) was 0 % rats. For the same compound, the Hyperalgesia ([2]; doses as E54) was 0 % rats.
